Laboratory results as given in patent publication US7001905B2, “Substituted diarylamines as MEK inhibitors” (Warner-Lambert Company, priority 2000, dated 2006).

Biological target: T1, MEK (Homo sapiens, UniProt Q02750)
T1 construct: no tag is given for the 2D mutant
Assay: in vitro MEK assay
Format: biochemical
Method: For evaluation of direct MEK activity, 10 μg GST-MEK, is incubated in the presence of absence of test compound with 5 μg of a glutathione S-transferase fusion protein containing p44MAP kinase with a lysine to alanine mutation at position 71 (GST-MAPK-KA). This mutation eliminates kinase activity of MAPK, so only kinase activity attributed to the added MEK remains. Incubations are 15 minutes at 30° C. in a final volume of 50 μL containing 50 mM Tris (pH 7.5), […], 2, μM EGTA, and 10 μM [γ-^32P]ATP. The reaction is stopped by addition of Laemmli SDS sample buffer. Phosphorylated GST-MAPK-KA is resolved by electrophoresis on a 10% polyacrylamide gel. Radioactivity incorporated into GST-MAPK-KA is determined by autoradiography, and subsequent scintillation counting of excised bands.
Alternatively, an artificially activated MEK containing serine to glutamate mutations at positions 218 and 222 (GST-MEK-2E) is used. When these two sites are phosphorylated, MEK activity is increased. Phosphorylation of these sites can be mimicked by mutation of the serine residues to glutamate. For this assay, 5 μg GST-MEK-2E is incubated with 5 μg GST-MAPK-KA for 15 minutes at 30° C. in the same reaction buffer as described above. Reactions are terminated and analyzed as above.

T1 sequence (Q02750 whole entry S218D/S222D, form open): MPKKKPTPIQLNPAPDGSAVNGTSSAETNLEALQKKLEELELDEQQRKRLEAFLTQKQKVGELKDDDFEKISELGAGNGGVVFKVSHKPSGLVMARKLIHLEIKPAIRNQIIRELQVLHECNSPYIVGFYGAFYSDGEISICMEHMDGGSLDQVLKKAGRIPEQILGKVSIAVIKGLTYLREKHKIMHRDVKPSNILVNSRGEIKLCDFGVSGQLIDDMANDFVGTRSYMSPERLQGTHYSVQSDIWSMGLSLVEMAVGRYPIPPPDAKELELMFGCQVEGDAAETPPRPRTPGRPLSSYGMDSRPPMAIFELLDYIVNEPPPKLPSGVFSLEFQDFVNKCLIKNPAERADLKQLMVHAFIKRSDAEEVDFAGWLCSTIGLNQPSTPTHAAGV

| SMILES | in vitro MEK assay: % inhibition @ 1 μM | IC50 |
| --- | --- | --- |
| Cc1cc(I)ccc1Nc1c(C(=O)O)cc(C(=O)NCCC2CCCN2C)c(F)c1F (centres unmarked) [Example 66, 4,5-Difluoro-6-(4-iodo-2-methyl-phenylamino)-N-[2-(1-methyl-pyrrolidin-2-yl)-ethyl]-isophthalamic acid] | 14% |  |
| Cc1cc(I)ccc1Nc1c(C(=O)O)cc(C(=O)NCCc2ccccn2)c(F)c1F [Example 67, 4,5-Difluoro-6-(4-iodo-2-methyl-phenylamino)-N-(2-pyridin-2-yl-ethyl)-isophthalamic acid] | 81% | 3300 nM |
| CCCCN(CCS)C(=O)c1cc(C(=O)O)c(Nc2ccc(I)cc2C)c(F)c1F [Example 68, N-Butyl-4,5-difluoro-6-(4-iodo-2-methyl-phenylamino)-N-(2-mercapto-ethyl)-isophthalamic acid] | 24% |  |
| Cc1cc(I)ccc1Nc1c(C(=O)O)cc(C(=O)N2CCCCC2CCO)c(F)c1F (centres unmarked) [Example 69, 3,4-Difluoro-5-{1-[2-(2-hydroxy-ethyl)-piperidin-1-yl]-methanoyl}-2-(4-iodo-2-methyl-phenylamino)-benzoic acid] | 78% | 2200 nM |
| Cc1cc(I)ccc1Nc1c(C(=O)O)cc(C(=O)N2CCCCC2CO)c(F)c1F (centres unmarked) [Example 70, 3,4-Difluoro-5-[1-(2-hydroxymethyl-piperidin-1-yl)-methanoyl]-2-(4-iodo-2-methyl-phenylamino)-benzoic acid] | 49% |  |
| Cc1cc(I)ccc1Nc1c(C(=O)O)cc(C(=O)NCc2cccnc2)c(F)c1F [Example 71, 4,5-Difluoro-6-(4-iodo-2-methyl-phenylamino)-N-pyridin-3-ylmethyl-isophthalamic acid] | 86% | 1450 nM |
| Cc1cc(I)ccc1Nc1c(C(=O)O)cc(C(=O)Nc2ccc3c(c2)OCCO3)c(F)c1F [Example 72, N-(2,3-Dihydro-benzo[1,4]dioxin-6-yl)4,5-difluoro-6-(4-iodo-2-methyl-phenylamino)-isophthalamic acid] | 65% |  |
| CCOC(=O)c1c[nH]nc1NC(=O)c1cc(C(=O)O)c(Nc2ccc(I)cc2C)c(F)c1F [Example 73, 3-({1-[5-Carboxy-2,3-difluoro-4-(4-iodo-2-methyl-phenylamino)-phenyl]-methanoyl}-amino)-1H-pyrazole-4-carboxylic acid ethyl ester] | 86% | 1100 nM |
| Cc1cc(I)ccc1Nc1c(C(=O)O)cc(C(=O)Nc2cccnc2)c(F)c1F [Example 74, 4,5-Difluoro-6-(4-iodo-2-methyl-phenylamino)-N-pyridin-3-yl-isophthalamic acid] | 50% |  |
| Cc1cc(I)ccc1Nc1c(C(=O)O)cc(C(=O)N2CCCC(O)C2)c(F)c1F (centres unmarked) [Example 75] | 92% | 465 nM |
| Cc1cc(I)ccc1Nc1c(C(=O)O)cc(C(=O)N2CCCC(CO)C2)c(F)c1F (centres unmarked) [Example 76, 3,4-Difluoro-5-[1-(3-hydroxymethyl-piperidin-1-yl)-methanoyl]-2-(4-iodo-2-methyl-phenylamino)-benzoic acid] | 88% | 300 nM |
| Cc1cc(I)ccc1Nc1c(C(=O)O)cc(C(=O)N2CCC(O)C2)c(F)c1F (centres unmarked) [Example 77, 3,4-Difluoro-5-[1-(3-hydroxy-pyrrolidin-1-yl)-methanoyl]-2-(4-iodo-2-methyl-phenylamino)-benzoic acid] | 83% | 880 nM |
| Cc1cc(I)ccc1Nc1c(C(=O)O)cc(C(=O)N2CCC(N3CCCC3)CC2)c(F)c1F [Example 78, 3,4-Difluoro-2-(4-iodo-2-methyl-phenylamino)-5-[1-(4-pyrrolidin-1-yl-piperidin-1-yl)-methanoyl]-benzoic acid] | 33% |  |
